Our source for the IC50 values is PubChem BioAssay AID651581 (Sanford-Burnham Center for Chemical Genomics, 2012).

pIC50: −log10 of the molar value. Active and inactive are the calls of the source. How the calls were made is not given here. Where only a bound is given, the exact number is not on record here.

For experiment [1], the target named is Endothelial PAS domain-containing protein 1 (Homo sapiens) (UniProt Q99814). Put plainly: potency against HIF reporters across cell lines – luminescence, panel, selectivity assay for HIF-2a inhibitor project, dose response (AID 651581). To be noted: human cell HIF reporter.
Experiment [2] addresses Hypoxia-inducible factor 1-alpha (Homo sapiens) (UniProt Q16665). The experiment is described as above. To be noted: human cell HIF reporter, HIF-1a.

Sequence of Hypoxia-inducible factor 1-alpha (Homo sapiens) (Q16665 whole entry, looked up): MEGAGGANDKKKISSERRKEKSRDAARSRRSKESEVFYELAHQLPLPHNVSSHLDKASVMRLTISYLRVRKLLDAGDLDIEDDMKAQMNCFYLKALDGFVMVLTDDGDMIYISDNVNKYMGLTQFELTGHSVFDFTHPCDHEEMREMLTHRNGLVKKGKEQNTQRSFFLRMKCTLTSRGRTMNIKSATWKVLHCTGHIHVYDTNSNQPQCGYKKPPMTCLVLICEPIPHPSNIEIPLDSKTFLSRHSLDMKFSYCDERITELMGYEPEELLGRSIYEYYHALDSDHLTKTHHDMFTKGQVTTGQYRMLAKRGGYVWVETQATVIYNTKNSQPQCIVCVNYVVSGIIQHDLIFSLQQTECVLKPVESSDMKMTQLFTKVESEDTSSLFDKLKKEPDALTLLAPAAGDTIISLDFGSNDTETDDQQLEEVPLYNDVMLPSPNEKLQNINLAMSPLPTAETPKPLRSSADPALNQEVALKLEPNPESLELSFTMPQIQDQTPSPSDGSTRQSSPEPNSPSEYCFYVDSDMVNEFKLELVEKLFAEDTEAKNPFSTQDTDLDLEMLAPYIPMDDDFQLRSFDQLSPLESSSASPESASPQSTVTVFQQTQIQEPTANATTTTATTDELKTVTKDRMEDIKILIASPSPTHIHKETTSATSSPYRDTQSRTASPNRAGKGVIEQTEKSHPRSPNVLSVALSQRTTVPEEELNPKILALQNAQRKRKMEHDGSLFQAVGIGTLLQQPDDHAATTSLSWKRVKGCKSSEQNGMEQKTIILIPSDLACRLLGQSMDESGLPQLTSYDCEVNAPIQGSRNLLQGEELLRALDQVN

On to `COCCn1c(C)cc(C(=O)CSc2nnc3ccccn23)c1C`, for which the IC50 entry in experiment [1] (HIF-2a PANC, mean of runs) was “inactive”. Moreover, the negative logarithm of the IC50 (pIC50) in experiment [1] (HIF-2a PANC, run 1) is 4.09; in experiment [1] (HIF-2a PANC, run 2) it was 4.51; in experiment [1] (HIF-2a, mean of runs), 5.13; in experiment [1] (HIF-2a, run 1), 5.13; in experiment [1] (HIF-2a, run 2), 5.13; in experiment [2] (mean of runs), 4.56. The results for the pIC50 in experiment [2] (run 1) and in experiment [2] (run 2) were 4.54 and 4.58, respectively.

On to `CCOC(=O)C1CCCN(C(=O)COc2ccc(C(C)(C)C)cc2)CC1` (stereo unspecified), for which the pIC50 is 4.87 in experiment [1] (HIF-2a PANC, mean of runs); 4.78 in experiment [1] (HIF-2a PANC, run 1); 4.98 in experiment [1] (HIF-2a PANC, run 2); 5.08 in experiment [1] (HIF-2a, mean of runs); 5.06 in experiment [1] (HIF-2a, run 1); 5.11 in experiment [1] (HIF-2a, run 2). The negative-log IC50 (pIC50) in experiment [2] (run 1) and in experiment [2] (run 2) was < 4.00 in each case.

On to `CCOC(=O)c1cccc(COC(=O)c2cccc(-c3nnc(-c4ccccc4)o3)c2)c1`, for which, in experiment [1] (HIF-2a PANC, mean of runs), the IC50 was > 99 µM (inactive). Besides, the negative logarithm of the IC50 (pIC50) is < 4.00 in experiment [1] (HIF-2a PANC, run 1); < 4.00 in experiment [1] (HIF-2a PANC, run 2); 4.88 in experiment [1] (HIF-2a, run 1); 4.78 in experiment [1] (HIF-2a, run 2); < 4.00 in experiment [2] (run 1); < 4.00 in experiment [2] (run 2). The IC50 entry in experiment [1] (HIF-2a, mean of runs) is “inactive”.

As to `CC1(C)CC[C@]2(C(=O)O)CC[C@]3(C)C(=CC[C@@H]4[C@@]5(C)CC[C@H](O[C@@H]6O[C@H](C(=O)O)[C@@H](O)[C@H](O[C@@H]7OC[C@H](O)[C@H](O)[C@H]7O)[C@H]6O)C(C)(C)[C@@H]5CC[C@]43C)[C@@H]2C1`, the pIC50 is < 4.00 in experiment [1] (HIF-2a PANC, run 1); 4.79 in experiment [1] (HIF-2a PANC, run 2); 4.84 in experiment [1] (HIF-2a, run 1); 4.84 in experiment [1] (HIF-2a, run 2); 4.81 in experiment [2] (run 1); 4.80 in experiment [2] (run 2). For the same compound, the IC50 result in experiment [1] (HIF-2a, mean of runs) was “inactive”; in experiment [2] (mean of runs), “inactive”.

With `Nc1nc2ccc(S(=O)(=O)c3ccc4nc(N)sc4c3)cc2s1`, the IC50 in experiment [1] (HIF-2a PANC, mean of runs) was > 99 µM (inactive). In addition, the negative logarithm of the IC50 (pIC50) was < 4.00 in experiment [1] (HIF-2a PANC, run 1); < 4.00 in experiment [1] (HIF-2a PANC, run 2); 4.83 in experiment [1] (HIF-2a, run 1); 4.83 in experiment [1] (HIF-2a, run 2); 4.14 in experiment [2] (run 1); < 4.00 in experiment [2] (run 2). The IC50 result in experiment [1] (HIF-2a, mean of runs) is “inactive”.

With `COc1cccc(/C=N/Nc2ncccc2[N+](=O)[O-])c1OC`, the negative-log IC50 (pIC50) in experiment [1] (HIF-2a PANC, mean of runs) was 4.66; in experiment [1] (HIF-2a PANC, run 1), 4.66; in experiment [1] (HIF-2a PANC, run 2) it was 4.67; in experiment [1] (HIF-2a, run 1), 5.09; in experiment [1] (HIF-2a, run 2), > 4.52; in experiment [2] (run 1), 4.69. The same compound had a negative-log IC50 (pIC50) in experiment [2] (run 2) of 4.70. Moreover, the IC50 result in experiment [2] (mean of runs) is “inactive”.

Turning to `COc1ccc2nc(-c3ccc(N)cc3)[nH]c2c1`, the pIC50 in experiment [1] (HIF-2a PANC, mean of runs) is 5.44; in experiment [1] (HIF-2a PANC, run 1), 5.26; in experiment [1] (HIF-2a PANC, run 2), 5.75; in experiment [1] (HIF-2a, mean of runs), 5.73; in experiment [1] (HIF-2a, run 1), 5.59; in experiment [1] (HIF-2a, run 2), 5.92. The pIC50 is 4.38 in experiment [2] (mean of runs), 4.41 in experiment [2] (run 1) and 4.35 in experiment [2] (run 2).

For `COc1ccccc1N1C(=O)C=C(Sc2nc(C)cc(C)n2)C1=O`, the IC50 in experiment [1] (HIF-2a PANC, mean of runs) is > 99 µM (inactive). For the same compound, the pIC50 in experiment [1] (HIF-2a PANC, run 1) is < 4.00; in experiment [1] (HIF-2a PANC, run 2), < 4.00; in experiment [1] (HIF-2a, run 1), 4.99; in experiment [1] (HIF-2a, run 2) it was 4.93; in experiment [2] (run 1), 4.17; in experiment [2] (run 2), < 4.00. For the same compound, the IC50 result in experiment [1] (HIF-2a, mean of runs) is “inactive”.

Take `COc1ccc(C(=O)/C=C/C(=O)N(CC(=O)NCCC(C)C)Cc2cccs2)c(O)c1`: the pIC50 in experiment [1] (HIF-2a PANC, run 1) was < 4.00; in experiment [1] (HIF-2a PANC, run 2), 4.20; in experiment [1] (HIF-2a, mean of runs), 5.41; in experiment [1] (HIF-2a, run 1) it was 5.38; in experiment [1] (HIF-2a, run 2) it was 5.45; in experiment [2] (mean of runs), 4.89. In addition, the pIC50 in experiment [2] (run 1) was 5.02; in experiment [2] (run 2), 4.79.

For the compound `CCOc1ccc(C(=O)Nc2nnc(SCC(=O)NCC3CCCO3)s2)cc1` (stereo unspecified), the pIC50 was 4.33 in experiment [1] (HIF-2a PANC, mean of runs); 4.68 in experiment [1] (HIF-2a PANC, run 1); 4.14 in experiment [1] (HIF-2a PANC, run 2); > 4.52 in experiment [1] (HIF-2a, run 1); > 4.52 in experiment [1] (HIF-2a, run 2); < 4.00 in experiment [2] (run 1). In experiment [2] (run 2), the pIC50 is < 4.00. Also, the IC50 in experiment [1] (HIF-2a, mean of runs) is < 30 µM (inactive).

Regarding `COC(=O)CCCNC(=O)CCc1nnc(-c2ccc(-c3ccccc3)cc2)o1`, the pIC50 is < 4.00 in experiment [1] (HIF-2a PANC, run 1); 4.67 in experiment [1] (HIF-2a PANC, run 2); 5.55 in experiment [1] (HIF-2a, mean of runs); 5.52 in experiment [1] (HIF-2a, run 1); 5.59 in experiment [1] (HIF-2a, run 2); < 4.00 in experiment [2] (run 1). The pIC50 in experiment [2] (run 2) is < 4.00.

In the case of `Nc1ccc(-c2cc3ccccc3c(=O)o2)cc1`, the pIC50 in experiment [1] (HIF-2a PANC, mean of runs) is 6.15; in experiment [1] (HIF-2a PANC, run 1) it was 6.11; in experiment [1] (HIF-2a PANC, run 2), 6.21; in experiment [1] (HIF-2a, mean of runs), > 6.00; in experiment [1] (HIF-2a, run 1), > 6.00; in experiment [1] (HIF-2a, run 2), > 6.00. Also, the pIC50 in experiment [2] (run 1) is 6.37; in experiment [2] (run 2) it was < 4.00.

Turning to `CCOC(=O)c1c(C)nn(-c2ccc(NC(=O)c3c(C)noc3C)cc2)c1C`, the IC50 entry in experiment [1] (HIF-2a PANC, mean of runs) was “inactive”; in experiment [2] (mean of runs) it was “inactive”. Further, the negative-log IC50 (pIC50) was 4.81 in experiment [1] (HIF-2a PANC, run 1); 4.88 in experiment [1] (HIF-2a PANC, run 2); 5.37 in experiment [1] (HIF-2a, mean of runs); 5.37 in experiment [1] (HIF-2a, run 1); 5.37 in experiment [1] (HIF-2a, run 2); 4.99 in experiment [2] (run 1). The same compound had a pIC50 in experiment [2] (run 2) of 4.93.
